Measured values as given in patent US20250241944A1 (CALIFORNIA INSTITUTE OF TECHNOLOGY, priority 2023, published 2025).
“Also recorded” adds a separate entry of the source. Where two headings read alike, the source gives them in different places.

How the values were obtained:
[1] = test system: WT Pseudomonas aeruginosa UCBPP-PA14; experiment: Antibiotic treatment assay with viable plate counts (percent survival / log killing); details: for log killing: OD500=2, chlorate 10 mM, tobramycin 31.25 μg/mL
P. aeruginosa biofilms = details: via Nar activity, reference [32]; cited from earlier work
[2] = test system: RPA (Riverside Pseudomonas aeruginosa) planktonic cultures; experiment: In vitro planktonic drug treatment, viable cell counts; assay type: cell-based; details: 24 h, ciprofloxacin 10 μg/mL, sodium chlorate 10 mM
[3] = test system: RPA-infected chronic wounds
Description: A diabetic mouse model (db/db−/−) of chronic wounds that mimics chronic wounds in humans was used to investigate wound healing.
Wounds were treated daily between 10 and 40 days postwounding.
The quality of wound healing in treated mice was characterized by performing histological and immunofluorescence analyses on day 40 wounds (FIG. 18 Panel A).
To distinguish between and visualize the distribution of collagen I and collagen III in the granulation tissue, the wounds were also stained with Picrosirius Red (PSR). […] Collagen IV immunolabeling was used to show whether basal lamina under the epidermis was present, an important indicator of proper connectivity of the epithelium with the underlying dermis. […] Keratin 14/16 is a cytokeratin found in proliferating keratinocytes of the epidermis and is observed in the cytoplasm surrounding the nucleus.
Blood vessel development during wound healing is another indicator of proper healing. The number of microvessels present in the granulation tissue was quantified by immunolabeling the wound tissue with a-smooth muscle actin (aSMA), a protein that is present in the cells surrounding blood vessels.

[4] = test system: RPA Anar strain (AnarGHJI); details: 24 h
Description: (§1) All experiments used Luria-Bertani (LB; Difco) as the growth medium, supplemented with KNO3 as specified. Aerobic liquid cultures were incubated at 37° C. with shaking at 250 RPM. Anaerobic work was conducted in an anaerobic glove box with a 95% N2-5% H2 atmosphere, and anaerobic cultures were incubated at 37° C.
For in vitro planktonic drug treatment studies, overnight RPA cultures were grown aerobically in LB broth supplemented with 40 mM KNO3. […] Cell resuspensions were added to 96-well plates (150 μL per well), and one 96-well plate was incubated statically (not shaking) at 37° C. at ambient oxygen, while a duplicate 96-well plate was incubated statically at 37° C. under anoxia (anaerobic glove box). Drug treatments were incubated for 24 h, after which cultures were serially diluted for viable cell counts. Viable cell counts were performed by serially diluting samples in phosphate-buffered saline (PBS). […] After incubation at 37° C., colonies were counted to quantify colony-forming units (CFU) per milliliter for each culture. Percent survival was calculated for each condition by dividing CFU/mL values from a drug treated sample by the average CFU/mL value from control (no drug) samples and multiplying by 100. […]
For in vitro biofilm drug studies, agar block biofilm assays (ABBAs) were used. […] Viable cell counts and percent survival were calculated for ABBA samples as described above.

[5] = mammals lack Nar; cited from earlier work
[6] = humans; cited from earlier work
[7] = test system: RPA-infected chronic wounds; details: diabetic mouse model, reference [227]; cited from earlier work
RPA aggregate biofilms = details: ABBA, 24 h; final 10 μg/mL ciprofloxacin, 10 mM sodium chlorate
Description: as §1
For in vitro biofilm drug studies, agar block biofilm assays (ABBAs) were used. Briefly, to set up ABBA, overnight RPA cultures were diluted to OD500=0.001 into cooled molten agar (44° C.) composed of LB with 5 mM KNO3 and 1% agar. Before the agar solidified, 500 μL of the cell-agar suspension was added to 2-mL Eppendorf tubes, after which samples were allowed to solidify. Eppendorf tubes were incubated at 37° C. for 24 h to allow cells to grow as aggregate biofilms suspended within the agar medium. After this growth incubation, ABBA samples were washed twice with 200 μL of PBS to remove cell growth that was not suspended within the agar. […] Drug treatments were incubated for 24 h at 37° C. To determine viable cell counts, ABBA samples were first homogenized by adding 300 μL of PBS to each sample and homogenizing on speed 3 with a Bio-Gen PRO200 Homogenizer (PRO Scientific).

[8] = five drugs of the study, hypoxic cultures
[9] = hypoxic conditions (static), 24 h, ciprofloxacin 1 μg/mL, ceftazidime 10 μg/mL
[10] = 24 h, hypoxic vs oxic conditions

Row | Molecule | O2-dependence of efficacy (hypoxic compared to oxic) [1] | capacity for synergy across drug classes [1, 8] | synergy of chlorate-antibiotic combination ([1]; hypoxic conditions, 24 h) | toxicity / killing of P. aeruginosa cultures (in words) ([1]; hypoxic conditions, 24 h) | toxicity / killing of P. aeruginosa cultures (in words) ([1]; oxic conditions, 24 h) | susceptibility of planktonic cultures (in words) ([2]; anoxic (anaerobic glove box)) | susceptibility of planktonic cultures (in words) ([2]; oxic (static, ambient oxygen)) | toxicity / killing of P. aeruginosa cultures (in words) ([1]; anoxic conditions, 24 h) | log killing [1, 9] [log] | O2-dependence of efficacy (hypoxic compared to oxic) [1, 10] | also measured
1 | CC(C)(O/N=C(\C(=O)N[C@@H]1C(=O)N2C(C(=O)[O-])=C(C[n+]3ccccc3)CS[C@H]12)c1csc(N)n1)C(=O)O [ceftazidime] | does not exhibit O2-dependent efficacy | do not | synergizing | completely resistant; also recorded: remain viable | completely resistant |  |  |  |  |  | reduction of the effective (lethal, toxic) ceftazidime dose by chlorate addition [1]: > 100 fold; ceftazidime concentrations to which P. aeruginosa is resistant ([1]; hypoxic cultures, 24 h, ceftazidime alone): ≤ 1,000 μg/mL
2 | [O-][Cl+2]([O-])O [chlorate, sodium chlorate] |  | wide-ranging synergistic interactions; also recorded: broad capacity for synergy |  | little-to-no killing; also recorded: remain viable | nontoxic | highly susceptible | highly tolerant | most effective; also recorded: some toxicity | 0.2 |  | killing of O2-limited, antibiotic-tolerant biofilm populations (P. aeruginosa biofilms): kills; effectiveness at promoting wound healing, comparison between treatments ([3]; day 40): as effective as ciprofloxacin; PSR staining: collagen I and collagen III in the granulation tissue ([3]; day 40 healed wounds): staining of both collagen I and collagen III; collagen IV immunolabeling: basement membrane under the epithelium ([3]; day 40 healed wounds): formed a basement membrane; aSMA immunolabeling: microvessels in the granulation tissue ([3]; day 40 wounds): showed microvessels; quality of the wound tissue ([3]; day 40 wounds, histology): significantly improved; susceptibility of Nar-lacking strain (in words) [4]: highly resistant; toxicity against mammals [5]: low toxicity; estimated lethal oral dose [6]: 20-35 grams; log killing ([1]; anoxic conditions (anaerobic glove box), 24 h): ~2.5 log; toxicity / killing of P. aeruginosa cultures (in words) ([1]; anoxic conditions, 24 h, listed as Chlorate): most toxic; toxicity / killing of P. aeruginosa cultures (in words) ([1]; hypoxic conditions, 24 h, listed as Chlorate): nontoxic; healing of P. aeruginosa-infected chronic wounds by topical treatment [7]: supports the healing
3 | O=C(O)c1cn(C2CC2)c2cc(N3CCNCC3)c(F)cc2c1=O [ciprofloxacin] | substantially less toxic |  | synergizing |  |  | highly susceptible | highly susceptible |  | ~1.5 |  | killing / susceptibility of aggregate biofilms (in words) (RPA aggregate biofilms): susceptible to ciprofloxacin but show greater survival than planktonic cells
4 | NC[C@H]1O[C@H](O[C@H]2[C@H](O)[C@@H](O[C@H]3O[C@H](CO)[C@@H](O)[C@H](N)[C@H]3O)[C@H](N)C[C@@H]2N)[C@H](N)C[C@@H]1O [tobramycin] |  |  |  |  | most effective |  |  | some toxicity |  | substantially less toxic | capacity for synergy across drug classes [1]: do not; synergy of chlorate-antibiotic combination [1]: synergizing; toxicity / killing of P. aeruginosa cultures (in words) ([1]; oxic conditions, 24 h, listed as Tobramycin): below our detection limit
5 | colistin |  | wide-ranging synergistic interactions; also recorded: broad capacity for synergy | synergizing |  |  |  |  |  |  | only marginally less effective at killing hypoxic cultures | P. aeruginosa viability after colistin combined with tobramycin, ciprofloxacin or ceftazidime [1]: below our detection limit; synergy in antibiotic-antibiotic combinations ([1]; hypoxic conditions, 24 h): displays synergistic interactions; also recorded: synergized
